# Test results published in patent publication US20040063662A1, “Selenophene anti-tumor agents” (priority 1996, published 2004).
# Read-outs that look alike come from different tables or passages of the source.
# Tests used:
# HL-60(TB) = assay: NCI human tumor cell panel: HL-60(TB) (Leukemia); format: cell-based; details: Leukemia; for GI50: read-out: Log10 GI50 (converted)
# SR = assay: NCI human tumor cell panel: SR (Leukemia); format: cell-based; details: Leukemia; for GI50: read-out: Log10 GI50 (converted); for IC (TGI): read-out: Log10 TGI (converted)
# EKVX = assay: NCI human tumor cell panel: EKVX (Non-Small Cell Lung Cancer); format: cell-based; details: Non-Small Cell Lung Cancer; for GI50: read-out: Log10 GI50 (converted)
# HOP-62 = assay: NCI human tumor cell panel: HOP-62 (Non-Small Cell Lung Cancer); format: cell-based; details: HOP-62, Non-Small Cell Lung Cancer; for IC (TGI): read-out: Log10 TGI (converted)
# NCI-H226 = assay: NCI human tumor cell panel: NCI-H226 (Non-Small Cell Lung Cancer); format: cell-based; details: NCI-H226, Non-Small Cell Lung Cancer; for GI50: read-out: Log10 GI50 (converted); for IC (TGI): read-out: Log10 TGI (converted)
# NCI-H23 = assay: NCI human tumor cell panel: NCI-H23 (Non-Small Cell Lung Cancer); format: cell-based; details: NCI-H23, Non-Small Cell Lung Cancer; for IC (TGI): read-out: Log10 TGI (converted)
# NCI-H322M = assay: cells; format: cell-based; details: Homo sapiens, Non-Small Cell Lung Cancer; for GI50: read-out: Log10 GI50 (converted); for IC (TGI): read-out: Log10 TGI (converted)
# COLO 205 = assay: NCI human tumor cell panel: COLO 205 (Colon Cancer); format: cell-based; details: COLO 205, Colon Cancer; for GI50: read-out: Log10 GI50 (converted); for IC (TGI): read-out: Log10 TGI (converted)
# HCT-15 = assay: NCI human tumor cell panel: HCT-15 (Colon Cancer); format: cell-based; details: HCT-15, Colon Cancer; for GI50: read-out: Log10 GI50 (converted); for IC (TGI): read-out: Log10 TGI (converted)
# HT29 = assay: NCI human tumor cell panel: HT29 (Colon Cancer); format: cell-based; details: HT-29, HT29, Colon Cancer; for GI50: read-out: Log10 GI50 (converted); for IC (TGI): read-out: Log10 TGI (converted)
# KM12 = assay: NCI human tumor cell panel: KM12 (Colon Cancer); format: cell-based; details: KM12, Colon Cancer; for GI50: read-out: Log10 GI50 (converted); for IC (TGI): read-out: Log10 TGI (converted)
# SW-620 = assay: NCI human tumor cell panel: SW-620 (Colon Cancer); format: cell-based; details: SW-620, Colon Cancer; for IC (TGI): read-out: Log10 TGI (converted)
# SF-268 = assay: NCI human tumor cell panel: SF-268 (CNS Cancer); format: cell-based; details: SF-268, CNS Cancer; for GI50: read-out: Log10 GI50 (converted); for IC (TGI): read-out: Log10 TGI (converted)
# SF-539 = assay: NCI human tumor cell panel: SF-539 (CNS Cancer); format: cell-based; details: SF-539, CNS Cancer; for GI50: read-out: Log10 GI50 (converted); for IC (TGI): read-out: Log10 TGI (converted)
# MALME-3M = assay: NCI human tumor cell panel: MALME-3M (Melanoma); format: cell-based; details: MALME-3M, Melanoma; for GI50: read-out: Log10 GI50 (converted); for IC (TGI): read-out: Log10 TGI (converted)
# SK-MEL-2 = assay: NCI human tumor cell panel: SK-MEL-2 (Melanoma); format: cell-based; details: SK-MEL-2, Melanoma; for GI50: read-out: Log10 GI50 (converted); for IC (TGI): read-out: Log10 TGI (converted)
# SK-MEL-28 = assay: NCI human tumor cell panel: SK-MEL-28 (Melanoma); format: cell-based; details: SK-MEL-28, Melanoma; for GI50: read-out: Log10 GI50 (converted); for IC (TGI): read-out: Log10 TGI (converted)
# UACC-62 = assay: NCI human tumor cell panel: UACC-62 (Melanoma); format: cell-based; details: UACC-62, Melanoma; for GI50: read-out: Log10 GI50 (converted); for IC (TGI): read-out: Log10 TGI (converted)
# OVCAR-5 = assay: NCI human tumor cell panel: OVCAR-5 (Ovarian Cancer); format: cell-based; details: OVCAR-5, Ovarian Cancer; for GI50: read-out: Log10 GI50 (converted); for IC (TGI): read-out: Log10 TGI (converted)
# SK-OV-3 = assay: NCI human tumor cell panel: SK-OV-3 (Ovarian Cancer); format: cell-based; details: SK-OV-3, Ovarian Cancer; for GI50: read-out: Log10 GI50 (converted); for IC (TGI): read-out: Log10 TGI (converted)
# CAKI-1 = assay: NCI human tumor cell panel: CAKI-1 (Renal Cancer); format: cell-based; details: CAKI-1, Renal Cancer
# RXF-393 = assay: NCI human tumor cell panel: RXF-393 (Renal Cancer); format: cell-based; details: RXF-393, Renal Cancer; for GI50: read-out: Log10 GI50 (converted); for IC (TGI): read-out: Log10 TGI (converted)
# SN12C = assay: NCI human tumor cell panel: SN12C (Renal Cancer); format: cell-based; details: Renal Cancer; for GI50: read-out: Log10 GI50 (converted); for IC (TGI): read-out: Log10 TGI (converted)
# MDA-MB-231/ATCC = assay: NCI human tumor cell panel: MDA-MB-231/ATCC (Breast Cancer); format: cell-based; details: Homo sapiens, MDA-MB-231, MDA-MB-231/ATCC, Breast Cancer
# T-47D = assay: NCI human tumor cell panel: T-47D (Breast Cancer); format: cell-based; details: T47D, Breast Cancer; for IC (TGI): read-out: Log10 TGI (converted)
# NCI-H522 = assay: NCI human tumor cell panel: NCI-H522 (Non-Small Cell Lung Cancer); details: for GI50: NCI-H522, read-out: Log10 GI50 (converted); for IC (TGI): NCI-H522, read-out: Log10 TGI
# [1] = tested on: panel of sixty different human tumor cell lines; assay: NCI human tumor cell panel: whole panel (mean graph summary); details: for GI50 / CC50: Homo sapiens
# OVCAR-4 = assay: NCI human tumor cell panel: OVCAR-4 (Ovarian Cancer); format: cell-based; details: OVCAR-4, Ovarian Cancer
# A498 = assay: NCI human tumor cell panel: A498 (Renal Cancer); format: cell-based; details: A498, Renal Cancer
# [2] = read-out: Log10 GI50 (converted)
# [3] = read-out: Log10 TGI (converted)
compound,measurement,setting,value
O=Cc1ccc(-c2ccc(-c3ccc(C=O)[se]3)s2)[se]1 [NSC 676630],GI50,HL-60(TB),> 100 µM
same,GI50,SR,> 100 µM
same,IC (TGI),SR,> 100 µM
same,GI50,EKVX,> 100 µM
same,IC (TGI),HOP-62,> 100 µM
same,GI50,NCI-H226,0.191 µM
same,IC (TGI),NCI-H226,0.49 µM
same,IC (TGI),NCI-H23,> 100 µM
same,GI50,NCI-H322M,> 100 µM
same,IC (TGI),NCI-H322M,> 100 µM
same,GI50,COLO 205,93.3 µM
same,IC (TGI),COLO 205,> 100 µM
same,GI50,HCT-15,> 100 µM
same,IC (TGI),HCT-15,> 100 µM
same,GI50,HT29,> 100 µM
same,IC (TGI),HT29,> 100 µM
same,GI50,KM12,> 100 µM
same,IC (TGI),KM12,> 100 µM
same,GI50,SW-620; [2],> 100 µM
same,IC (TGI),SW-620,> 100 µM
same,GI50,SF-268,> 100 µM
same,IC (TGI),SF-268,> 100 µM
same,GI50,SF-539,> 100 µM
same,IC (TGI),SF-539,> 100 µM
same,GI50,MALME-3M,> 100 µM
same,IC (TGI),MALME-3M,> 100 µM
same,GI50,SK-MEL-2,> 100 µM
same,IC (TGI),SK-MEL-2,> 100 µM
same,GI50,SK-MEL-28,> 100 µM
same,IC (TGI),SK-MEL-28,> 100 µM
same,GI50,UACC-62,0.263 µM
same,IC (TGI),UACC-62,> 100 µM
same,GI50,OVCAR-5,0.132 µM
same,IC (TGI),OVCAR-5,0.447 µM
same,GI50,SK-OV-3,> 100 µM
same,IC (TGI),SK-OV-3,> 100 µM
same,GI50,CAKI-1; [2],0.741 µM
same,IC (TGI),CAKI-1; [3],15.1 µM
same,GI50,RXF-393,> 100 µM
same,IC (TGI),RXF-393,> 100 µM
same,GI50,SN12C,> 100 µM
same,IC (TGI),SN12C,> 100 µM
same,GI50,MDA-MB-231/ATCC; [2],> 100 µM
same,IC (TGI),MDA-MB-231/ATCC; [3],> 100 µM
same,IC (TGI),T-47D,> 100 µM
same,GI50,NCI-H522,20.9 µM
same,IC (TGI),NCI-H522,53.7 µM
same,GI50,"[1]; read-out: Delta Log10 GI50, whole panel, line Delta (converted)",26.3 µM
same,CC50,"[1]; read-out: Delta Log10 LC50, whole panel, line Delta (converted)",85.1 µM
O=Cc1ccc(-c2ccc(-c3cccs3)[se]2)s1 [NSC 675346],GI50,HL-60(TB),> 100 µM
same,IC (TGI),HL-60(TB); read-out: Log10 TGI,> 100 µM
same,GI50,SR,> 100 µM
same,IC (TGI),SR,> 100 µM
same,GI50,EKVX,77.6 µM
same,IC (TGI),EKVX; [3],> 100 µM
same,GI50,HOP-62; [2],64.6 µM
same,IC (TGI),HOP-62,> 100 µM
same,GI50,NCI-H226,0.0174 µM
same,IC (TGI),NCI-H226,0.12 µM
same,GI50,NCI-H23; [2],14.5 µM
same,IC (TGI),NCI-H23,58.9 µM
same,GI50,NCI-H322M,12.9 µM
same,IC (TGI),NCI-H322M,> 100 µM
same,GI50,COLO 205,4.79 µM
same,IC (TGI),COLO 205,> 100 µM
same,GI50,HCT-15,18.6 µM
same,IC (TGI),HCT-15,> 100 µM
same,GI50,HT29,> 100 µM
same,IC (TGI),HT29,> 100 µM
same,GI50,KM12,32.4 µM
same,IC (TGI),KM12,> 100 µM
same,IC (TGI),SW-620,> 100 µM
same,GI50,SF-268,19.1 µM
same,IC (TGI),SF-268,> 100 µM
same,GI50,SF-539,51.3 µM
same,IC (TGI),SF-539,> 100 µM
same,GI50,MALME-3M,34.7 µM
same,IC (TGI),MALME-3M,> 100 µM
same,GI50,SK-MEL-2,24.5 µM
same,IC (TGI),SK-MEL-2,> 100 µM
same,GI50,SK-MEL-28,44.7 µM
same,IC (TGI),SK-MEL-28,> 100 µM
same,GI50,UACC-62,< 0.01 µM
same,IC (TGI),UACC-62,0.0282 µM
same,GI50,OVCAR-4; [2],0.12 µM
same,IC (TGI),OVCAR-4; [3],26.9 µM
same,GI50,OVCAR-5,0.0447 µM
same,IC (TGI),OVCAR-5,0.575 µM
same,GI50,SK-OV-3,12.6 µM
same,IC (TGI),SK-OV-3,> 100 µM
same,GI50,A498; [2],0.145 µM
same,IC (TGI),A498; [3],0.295 µM
same,GI50,RXF-393,16.2 µM
same,IC (TGI),RXF-393,42.7 µM
same,GI50,SN12C,> 100 µM
same,IC (TGI),SN12C,> 100 µM
same,GI50,T-47D; [2],18.2 µM
same,IC (TGI),T-47D,40.7 µM
same,GI50,NCI-H522,33.1 µM
same,IC (TGI),NCI-H522,> 100 µM
same,GI50,"[1]; read-out: Log10 GI50, cell line not given (converted)",1.7 µM
same,CC50,"[1]; read-out: Log10 LC50, cell line not given (converted)",> 100 µM
same,Log10 TGI,[1]; cell line not given,>−4.00
